Source: patent US7521418B2, “Use of a polyene macrolide antifungal agent in combination with a glycopeptide antibacterial agent” (Theravance, Inc., priority 2003, dated 2009)

Experiments:
[1] = tested on: C. parapsilosis ATCC 22019; test: Checkerboard MIC assay, FICI; type: cell-based, Candida parapsilosis; conditions: combination with Compound 1; C. parapsilosis ATCC 22019
From the text: (§1) The following assay was used to determine the minimum inhibitory concentration (MIC) and fractional inhibitory concentration index (FICI) for combinations of an antifungal agent and a glycopeptide antibacterial agent. This assay and methods for calculating FICI are well known in the art. See, for example, Eliopoulos, E. G. and R. Moellering, Jr. “Antimicrobial Combinations” in Antibiotics in Laboratory Medicine, edited by V. Lorian, 4th Ed., Williams & Wilkins, Baltimore, MD, pp. 330-396 (1996); […] et al., Antimicrobial Agents and Chemotherapy 47(4):1416-1418 (2003); or […] et al., Antimicrobial Agents and Chemotherapy 46(10):3323-3326 (2002). Procedures, protocols, supplies and equipment used in this assay follow the recommendations approved and published by the National Committee for Clinical Laboratory Standards (NCCLS), Wayne, Pa. as described in NCCLS 2003, “Reference Method for Broth Dilution Antimicrobial Susceptibility Tests for Bacteria that Grow Aerobically; Approved Standard” (NCCLS document M7-A6); NCCLS 2002, “Reference Method for Broth Dilution Antifungal Susceptibility Tests of Filamentous Fungi that Grow Aerobically; Approved Standard” (NCCLS document M38-A); and NCCLS 2002 “Reference Method for Broth Dilution Antifungal Susceptibility Tests of Yeast; Approved Standards-2nd Edition” (NCCLS document M27-A2). Using a checkerboard method, a 2-fold dilution 100× final concentration master plate was prepared using a 96-well U-shape microtiter plate and an appropriate solvent. In the “checkerboard” method, a microtiter plate is divided into “columns” in which each well in the column contains the same amount of an antifungal agent (Compound A) being diluted along the x-axis, and “rows” in which each well in the row contains the same amount of a glycopeptide antibacterial agent (Compound B) being diluted on the y-axis. Also included is a row (or column) for Compound A or B alone. The dilutions used in the checkerboard are exponential (by powers of two). The result is that each well in the microtiter plate contains a unique concentration of the two compounds being tested. […] After mixing, 100 μL of 2× drug combinations were distributed into 96-well microtiter plates. […] Compound A was not added to Column 12, so Column 12 contained only Compound B. Compound B was diluted from row A starting at 6,400 μg/mL down to row G (100 μg/mL). Wells in Row A contained a final concentration of 64 μg/mL of Compound B; Row B contained a final concentration of 32 μg/mL of Compound B; Row C contained a final concentration of 16 μg/mL of Compound B; etc. Compound B was not added to Row H, so Row H only contained Compound A. […] The MIC of the glycopeptide antibacterial agent determined from this experiment was used in FIC calculations. […] RPMI-1640 without sodium bicarbonate media (GIBCO-BRL, Carlsbad, Calif.), an enriched media formulated for mammalian cells, was used according to the NCCLS guidelines for yeast and filamentous fungi susceptibility testing. The medium was buffered with 0.165 M 3-[N-Morpholino]propanesulfonic acid (MOPS) supplemented with 20 g/L glucose and pH adjusted to 7.0 with hydrogen chloride. Sabouraud Dextrose Agar ([…] plates, and Potato Dextrose Agar (PDA) plates were purchased from Hardy Diagnostic (Santa Maria, Calif.). Yeast cultures were started from -80° C. frozen stock streaked on […] incubated at 35° C. under aerobic conditions for 24 h. The […] in the refrigerator for up to 2 weeks and used regularly as a starting culture. About 24 to 48 h before each assay was run, yeasts were streaked on SDA plates for isolated colonies. To prepare the inoculum, from one to four colonies were resuspended in 5 mL of saline, and vortexed for 15 sec. […] For most yeast and mold cultures, the optical density (OD) of the suspension was adjusted to 0.11 in saline to provide 0.4×10^6 CFU/mL. However, for Fusarium moniliforme and Pseudallescheria boydii the OD of the suspension was adjusted to OD=0.17 to provide 0.4×10^6 CFU/mL. […]

C. krusei ATCC 32672 = test: Checkerboard MIC assay, FICI; type: cell-based, Candida krusei; conditions: combination with Compound 1; C. krusei ATCC 32672
From the text: as §1

Question: Which results are given for C[C@@H]1[C@H](O)[C@@H](C)/C=C/C=C/C=C/C=C/C=C/C=C/C=C/[C@H](O[C@@H]2O[C@H](C)[C@@H](O)[C@H](N)[C@@H]2O)C[C@@H]2O[C@](O)(C[C@@H](O)C[C@@H](O)[C@H](O)CC[C@@H](O)C[C@@H](O)CC(=O)O[C@H]1C)C[C@H](O)[C@H]2C(=O)O [Amphotericin B]?
Answer: FICI [1]: 0.28; FICI (C. krusei ATCC 32672): 0.31

Question: Which results are given for C[C@@H]1[C@H](O)[C@@H](C)/C=C/C=C/CC/C=C/C=C/C=C/C=C/C(O[C@H]2O[C@H](C)[C@@H](O)[C@H](N)[C@@H]2O)CC2O[C@](O)(CC(O)C(O)CCC(O)CC(O)CC(O)CC(=O)O[C@H]1C)CC(O)C2C(=O)O (stereo partly shown) [Nystatin]?
Answer: FICI [1]: 0.31; FICI (C. krusei ATCC 32672): 0.50
